Source: patent US6908935B2, “Calcium receptor modulating agents” (Amgen Inc., priority 2002, dated 2005)

Each compound was assayed against T1, human parathyroid cell Ca^2+ receptor (hPCaR) (Homo sapiens, UniProt P41180) (assay: [Ca2+]i measurement with fluo-3 in HEK 293 4.0-7 cells stably transfected with hPCaR). Settings: fluo-3 fluorescence (485/530 nm), effect on [Ca^2+]i.
T1 construct: expressed in transfected cells
T1 sequence (P41180 20-1078): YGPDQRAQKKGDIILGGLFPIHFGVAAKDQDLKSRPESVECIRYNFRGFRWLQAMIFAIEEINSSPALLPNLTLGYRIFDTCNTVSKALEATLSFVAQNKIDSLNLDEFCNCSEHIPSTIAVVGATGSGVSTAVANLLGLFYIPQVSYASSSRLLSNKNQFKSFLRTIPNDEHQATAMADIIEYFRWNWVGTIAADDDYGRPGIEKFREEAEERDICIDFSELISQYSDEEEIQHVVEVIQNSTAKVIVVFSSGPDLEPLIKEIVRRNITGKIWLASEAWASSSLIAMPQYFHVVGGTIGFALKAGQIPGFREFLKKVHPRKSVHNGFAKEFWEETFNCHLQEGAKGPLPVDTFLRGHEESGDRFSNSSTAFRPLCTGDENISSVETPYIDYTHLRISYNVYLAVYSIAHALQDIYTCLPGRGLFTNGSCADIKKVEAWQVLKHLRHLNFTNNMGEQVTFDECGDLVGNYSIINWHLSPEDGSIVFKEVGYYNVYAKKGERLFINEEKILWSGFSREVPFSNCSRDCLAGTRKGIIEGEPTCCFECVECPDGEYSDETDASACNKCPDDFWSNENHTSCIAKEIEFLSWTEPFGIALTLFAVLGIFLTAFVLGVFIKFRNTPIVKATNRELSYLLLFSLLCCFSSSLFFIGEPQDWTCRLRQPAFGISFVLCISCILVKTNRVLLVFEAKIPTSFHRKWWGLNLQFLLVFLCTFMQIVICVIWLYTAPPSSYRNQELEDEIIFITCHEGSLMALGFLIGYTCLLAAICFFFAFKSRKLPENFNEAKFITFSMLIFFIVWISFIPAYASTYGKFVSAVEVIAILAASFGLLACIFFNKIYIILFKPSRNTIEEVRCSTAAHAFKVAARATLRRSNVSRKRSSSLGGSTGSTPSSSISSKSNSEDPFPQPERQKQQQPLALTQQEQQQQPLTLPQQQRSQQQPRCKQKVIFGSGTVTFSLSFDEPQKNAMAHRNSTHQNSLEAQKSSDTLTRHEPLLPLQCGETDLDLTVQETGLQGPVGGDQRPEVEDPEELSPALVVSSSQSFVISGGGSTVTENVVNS
Type: cell-based
In short: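 Cytosolic [Ca2+] was read as fluo-3 fluorescence (ex 485/em 530 nm) after compound addition to washed cells. Cells were hPCaR-transfected HEK 293 clone 7, dye-loaded 30 min at 37 °C with 2 μM fluo-3 acetoxymethyl ester in HEPES-buffered saline pH 7.45 containing 1 mM CaCl2 and 0.5% BSA.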

EC50, ≤ 10 µM:
CCOc1ccc(-c2cc(CN[C@H](C)c3ccccc3)ccc2OC)cn1 [(1R)-N-((3-(6-(ethyloxy)-3-pyridinyl)-4-(methyloxy)phenyl)methyl)-1-phenylethanamine]
COc1ccc(-c2cccc(CN[C@H](C)c3cccc4ccccc34)c2)nn1 [(1R)-N-((3-(6-(methyloxy)-3-pyridazinyl)phenyl)methyl)-1-(1-naphthalenyl)ethanamine]
COc1ccc(-c2cccc(CN[C@H](C)c3ccccc3)c2)nn1 [(1R)-N-((3-(6-(methyloxy)-3-pyridazinyl)phenyl)methyl)-1-phenylethanamine]
Cc1ccc(-c2cccc(CN[C@H](C)c3cccc4ccccc34)c2)cn1 [(1R)-N-((3-(6-methyl-3-pyridinyl)phenyl)methyl)-1-(1-naphthalenyl)ethanamine]
Cc1ccc(-c2cccc(CN[C@H](C)c3ccc4ccccc4c3)c2)cn1 [(1R)-N-((3-(6-methyl-3-pyridinyl)phenyl)methyl)-1-(2-naphthalenyl)ethanamine]
Cc1ccc(-c2cccc(CN[C@H](C)c3ccccc3)c2)cn1 [(1R)-N-((3-(6-methyl-3-pyridinyl)phenyl)methyl)-1-phenylethanamine]
COc1ccc(CN[C@H](C)c2cccc3ccccc23)cc1-c1ccc2nccn2c1 [(1R)-N-((3-imidazo[1,2-a]pyridin-6-yl-4-(methyloxy)phenyl)methyl)-1-(1-naphthalenyl)ethanamine]
COc1ccc(CN[C@H](C)c2ccccc2)cc1-c1ccc2nccn2c1 [(1R)-N-((3-imidazo[1,2-a]pyridin-6-yl-4-(methyloxy)phenyl)methyl)-1-phenylethanamine]
Cc1ccc([C@@H](C)NCc2cccc(-c3ccc(C)c(C)c3)c2)cc1 [(1R)-N-((3′,4′-dimethyl-1,1′-biphenyl-3-yl)methyl)-1-(4-methylphenyl)ethanamine]
COc1cccc(-c2cc(CN[C@H](C)c3cccc4ccccc34)ccc2OC)c1 [(1R)-N-((3′,6-bis(methyloxy)-1,1′-biphenyl-3-yl)methyl)-1-(1-naphthalenyl)ethanamine]
COc1cccc(-c2cc(CN[C@H](C)c3cccc(OC)c3)ccc2OC)c1 [(1R)-N-((3′,6-bis(methyloxy)-1,1′-biphenyl-3-yl)methyl)-1-(3-(methyloxy)phenyl)ethanamine]
COc1cccc(-c2cccc(CN[C@H](C)c3cccc(OC)c3)c2)c1 [(1R)-N-((3′-(methyloxy)-1,1′-biphenyl-3-yl)methyl)-1-(3-(methyloxy)phenyl)ethanamine]
COc1ccc([C@@H](C)NCc2cccc(-c3cccc(OC)c3)c2)cc1 [(1R)-N-((3′-(methyloxy)-1,1′-biphenyl-3-yl)methyl)-1-(4-(methyloxy)phenyl)ethanamine]
COc1cccc(-c2cccc(CN[C@H](C)c3ccc(C)cc3)c2)c1 [(1R)-N-((3′-(methyloxy)-1,1′-biphenyl-3-yl)methyl)-1-(4-methylphenyl)ethanamine]
COc1cccc(-c2cccc(CN[C@H](C)c3ccccc3)c2)c1 [(1R)-N-((3′-(methyloxy)-1,1′-biphenyl-3-yl)methyl)-1-phenylethanamine]
Cc1noc(C)c1-c1ccc(CN[C@H](C)c2cccc3ccccc23)cc1 [(1R)-N-((4-(3,5-dimethyl-4-isoxazolyl)phenyl)methyl)-1-(1-naphthalenyl)ethanamine]
C[C@@H](NCc1ccc(OC(F)F)c(-c2cccnc2)c1)c1cccc2ccccc12 [(1R)-N-((4-((difluoromethyl)oxy)-3-(3-pyridinyl)phenyl)methyl)-1-(1-naphthalenyl)ethanamine]
COc1cccc([C@@H](C)NCc2ccc(OC(F)F)c(-c3cccnc3)c2)c1 [(1R)-N-((4-((difluoromethyl)oxy)-3-(3-pyridinyl)phenyl)methyl)-1-(3-(methyloxy)phenyl)ethanamine]
C[C@@H](NCc1ccc(OC(F)F)c(-c2cccnc2)c1)c1ccccc1 [(1R)-N-((4-((difluoromethyl)oxy)-3-(3-pyridinyl)phenyl)methyl)-1-phenylethanamine]
COc1ccc(CN[C@H](C)c2cccc3ccccc23)cc1-c1nccs1 [(1R)-N-((4-(methyloxy)-3-(1,3-thiazol-2-yl)phenyl)methyl)-1-(1-naphthalenyl)ethanamine]
COc1ccc(CN[C@H](C)c2ccc3ccccc3c2)cc1-c1nccs1 [(1R)-N-((4-(methyloxy)-3-(1,3-thiazol-2-yl)phenyl)methyl)-1-(2-naphthalenyl)ethanamine]
COc1ccc(CN[C@H](C)c2ccc(C)cc2)cc1-c1nccs1 [(1R)-N-((4-(methyloxy)-3-(1,3-thiazol-2-yl)phenyl)methyl)-1-(4-methylphenyl)ethanamine]
COc1ccc(CN[C@H](C)c2ccccc2)cc1-c1nccs1 [(1R)-N-((4-(methyloxy)-3-(1,3-thiazol-2-yl)phenyl)methyl)-1-phenylethanamine]
COc1ccc(CN[C@H](C)c2cccc3ccccc23)cc1-c1ccc2c(ccn2CC(F)(F)F)c1 [(1R)-N-((4-(methyloxy)-3-(1-(2,2,2-trifluoroethyl)-1H-indol-5-yl)phenyl)methyl)-1-(1-naphthalenyl)ethanamine]
COc1ccc(CN[C@H](C)c2ccccc2)cc1-c1ccc2c(ccn2CC(F)(F)F)c1 [(1R)-N-((4-(methyloxy)-3-(1-(2,2,2-trifluoroethyl)-1H-indol-5-yl)phenyl)methyl)-1-phenylethanamine]
COCC(=O)N1CCC(c2cc(CN[C@H](C)c3cccc4ccccc34)ccc2OC)CC1 [(1R)-N-((4-(methyloxy)-3-(1-((methyloxy)acetyl)-4-piperidinyl)phenyl)methyl)-1-(1-naphthalenyl)ethanamine]
COc1ccc(CN[C@H](C)c2cccc3ccccc23)cc1-c1cnc2c(ccn2C)c1 [(1R)-N-((4-(methyloxy)-3-(1-methyl-1H-pyrrolo[2,3-b]pyridin-5-yl)phenyl)methyl)-1-(1-naphthalenyl)ethanamine]
COc1cccc([C@@H](C)NCc2ccc(OC)c(-c3cnc4c(ccn4C)c3)c2)c1 [(1R)-N-((4-(methyloxy)-3-(1-methyl-1H-pyrrolo[2,3-b]pyridin-5-yl)phenyl)methyl)-1-(3-(methyloxy)phenyl)ethanamine]
COc1ccc(CN[C@H](C)c2ccccc2)cc1-c1cnc2c(ccn2C)c1 [(1R)-N-((4-(methyloxy)-3-(1-methyl-1H-pyrrolo[2,3-b]pyridin-5-yl)phenyl)methyl)-1-phenylethanamine]
COc1ccc(CN[C@H](C)c2cccc3ccccc23)cc1-c1ccc2c(c1)nc(C(F)(F)F)n2C [(1R)-N-((4-(methyloxy)-3-(1-methyl-2-(trifluoromethyl)-1H-benzimidazol-5-yl)phenyl)methyl)-1-(1-naphthalenyl)ethanamine]
COc1ccc(CN[C@H](C)c2ccccc2)cc1-c1ccc2c(c1)nc(C(F)(F)F)n2C [(1R)-N-((4-(methyloxy)-3-(1-methyl-2-(trifluoromethyl)-1H-benzimidazol-5-yl)phenyl)methyl)-1-phenylethanamine]
COc1ccc(CN[C@H](C)c2cccc3ccccc23)cc1C1CCN(C)CC1 [(1R)-N-((4-(methyloxy)-3-(1-methyl-4-piperidinyl)phenyl)methyl)-1-(1-naphthalenyl)ethanamine]
COc1cccc([C@@H](C)NCc2ccc(OC)c(C3CCN(C)CC3)c2)c1 [(1R)-N-((4-(methyloxy)-3-(1-methyl-4-piperidinyl)phenyl)methyl)-1-(3-(methyloxy)phenyl)ethanamine]
